Data taken from patent publication US20240336658A1, “CYCLIC PEPTIDE AND PREPARATION METHOD AND USE THEREOF” (HANGZHOU HUIBO SCIENCE AND TECHNOLOGY CO., LTD, priority 2021, published 2024).

What was measured:
fibroblasts (NIH/3T3) = test: Scratch experiment, Hst1-MAD cyclic peptides (Example 23); format: cell-based; conditions: dose required to achieve the same pharmaceutical effect in the scratch experiment
Text: In this example, the propargylglycine-Hst1-MAD cyclic peptide, the homopropargylglycine-Hst1-MAD cyclic peptide, the dihomopropargylglycine-Hst1-MAD cyclic peptide and the linear Hst1 prepared in Examples 13, 14, and 15, and the Hst1-MAD head-to-tail cyclic peptide or N-terminal and C-terminal cyclized peptide prepared by the amide bond cyclization method provided by the literature of for example Sortase A as a tool for high-yield histatin cyclization, Jan G. M. Bolscher, The FASEB Journal. Research Communication, were adopted respectively, the reaction time was recorded, the yield of the reaction product was detected by HPLC, the proportion of side reactions in the reaction product was calculated, and activity comparison was performed. The activity comparison method was to calculate the dose required to achieve the same pharmaceutical effect through a scratch experiment. […] After 12 hours and 24 hours of culture, the scratched area of each group was calculated by using imageJ (Rawak Software, Inc. Germany) software, and the scratch area at 0 hour was an initial scratch area. The scratch healing rate was calculated in the following manner: W % (scratch healing rate)=(W0−Wt)/W0×100%, where W0=an initial scratch area, and Wt=a remaining scratch area; and the results were as shown in Table 14.

[1] = tested on: full-thickness skin defect wound surfaces; test: Effect of Hst1-MAD cyclic peptide on wound repair in mice (Example 22): healing rate, histology, immunohistochemistry, immunofluorescence double staining, Western Blot; format: in vivo, C57 BL/6 mice
Description: […]. 36 healthy male special pathogen-free grade C57 BL/6 mice (purchased from Guangdong Experimental Animal Center) of 6-8 weeks old and weighing 22-28 g. They were intraperitoneally injected with 5 ml/kg of 1% pentobarbital sodium for anesthesia. After the mice had no corneal reflex, the hair on their backs was carefully removed and disinfected with alcohol. […] full-thickness skin defect wound surfaces were prepared on the back of each mouse by using a circular skin punch. […]. Each wound surface was added with 0.5 ml of four drugs respectively, and administration was conducted every day until the wound surfaces of the experimental groups healed. Photographs were taken on days 0, 3, 5, and 10 after surgery, and wound tissues were sampled on days 3, 5, and 10 for subsequent pathological staining.
was observed and photographed with a digital camera (see FIG. 19), and the wound healing rate was calculated (see FIG. 20). Wound healing rate=(wound area immediately after injury−unhealed wound area at each time point)÷wound area immediately after injury×100%.
The wound specimens were fixed in 4% paraformaldehyde for 48 hours, rinsed with tap water for 10 minutes, dehydrated with graded ethanol, permeabilized with xylene, and embedded in paraffin to prepare 4 μm thick sections. Some sections were taken and subjected to HE staining to detect an epidermal thickness and subjected to Masson staining to detect newly grown collagen. Through hematoxylin-cosin staining (HE), the effects of the four groups of drugs on newly grown epidermal at the wound surface on day 10 were evaluated (FIGS. 21 and 22). Through Masson staining, the effects of the four groups of drugs on newly grown collagen at the wound surface on days 5 and 10 were evaluated (FIGS. 23 and 24). 5 sections were taken from each mouse, and 5 fields of view were selected for each section. Data analysis was performed using the software Image-pro Plus.
and rehydrated, subjected to antigen thermal repair with a 0.1 mol/L citric acid buffer (with a pH value of 6.0) for 20 minutes, treated with hydrogen peroxide with a volume fraction of 10% for inactivation of endogenous peroxidase for 10 minutes, and blocked with 50 g/L of bovine serum albumin for 2 hours. It was added with a rabbit anti-mouse CD31 primary antibody (with a dilution ratio of 1:300) and a mouse anti-VEGF (with a dilution ratio of 1:100), incubated overnight at 4° C., and washed with PBS. It was rewarmed for 1 hour, washed with PBS, added dropwise with ready-to-use biotinylated goat anti-mouse and goat anti-rabbit IgG secondary antibodies, incubated for 2 hours, and washed with PBS. It was subjected to DAB development, hematoxylin counterstaining. gradient ethanol dehydration, xylene permeabilization, and resin blocking. 5 sections were taken from each mouse, and 5 fields of view were selected for each section. The sections were observed under a 400× inverted fluorescence microscope, and analyzed for the number of CD31-positive blood vessels (see FIG. 25) and VEGF expression amounts (see FIG. 26) by using Image-pro Plus software.
The specific steps were: the previous steps were the same as those of 1.3.3, and they were incubated with the antibodies MHCII (orb101661; 1:500; Biorbyt Biotechnology Co., Ltd., Wuhan, CN), CD11c (97585; 1:200; Cell Signaling Technology Inc., Boston, MA), CD68 (GB11067; 1:300; Servicebio Inc.), CD80 (GB11034; 1:300; Servicebio Inc.), CD206 (GB11062; 1:500; Servicebio Inc.), claudin1 (37-4900; 1:100; Thermo Fisher Scientific Co., Ltd, Shanghai, CN) and claudin2 (32-5600; 1:200; Thermo Fisher Scientific Co., Ltd.) at 4° C. overnight. The fluorescent-labeled secondary antibodies were incubated at room temperature for 1 h, followed by 4′,6-diamidino-2′-phenylindole (DAPI) (G1012; Google Biotechnology Co., Ltd., Wuhan, CN). The stained sections were photographed by using a fluorescence microscope (Nikon Eclipse TI-SR. Tokyo, Japan). […]

[2] = day 3 after surgery, Western Blot, 10 μM Histatin1
[3] = day 10, immunofluorescence, 1 μM Click-Hst1-MAD, 1 μM Hst1-MAD, 10 μM Histatin1

Linear Hst1: linear peptide Hst1 (Histatin1), amino acid sequence SEQ ID NO.1
Dosage of agents required for scratch test (fibroblasts (NIH/3T3)): 10 µM
number of M2 macrophages (CD68+ and CD206+) ([1]; day 3, 1 μM Click-Hst1-MAD, 10 μM Hst1, M±SD): 12.67±7.34
expression level of HO-1 relative to the control group [1, 2]: 1.80 times
expression level of Nrf2 relative to the control group [1, 2]: 1.27 times
expression level of NQO1 relative to the control group ([1]; day 3 after surgery, Western Blot, 10 μM Hst1): 2.08 times
number of dendritic cells (MHCII+ and CD11c+) relative to the control group ([1]; day 3 after surgery, 10 μM Hst1, 1 μM Click-Hst1-MAD): 1.75 times
VEGF expression amount ([1]; day 5, 1 μM Click-Hst1-MAD, 10 μM Histatin1, 1 μM Hst1-MAD compared with each other): comparable
expression levels of the dermal collagen ([1]; day 5, 1 μM Hst1-MAD and 10 μM Histatin1 compared with each other): equivalent
Claudin1 expression intensity [1, 3]: equivalent expression level of Claudin1
Claudin2 expression intensity [1, 3]: no obvious effect on promoting Claudin2 expression
VEGF expression amount ([1]; day 10, 1 μM Click-Hst1-MAD, 10 μM Histatin1): higher
number of dendritic cells (MHCII+ and CD11c+) ([1]; days 3 and 5 evaluated, 1 μM Click-Hst1-MAD, 1 μM Hst1-MAD, 10 μM Histatin1): significantly higher than that in the Control group
number of M1 macrophages (CD68+ and CD80+) ([1]; days 3 and 5 evaluated, 1 μM Hst1-MAD, 10 μM Histatin1): lower than that in the Control group
number of CD31-positive blood vessels ([1]; days 5 and 10, immunohistochemistry, 1 μM Click-Hst1-MAD, 1 μM Hst1-MAD, 10 μM Histatin1): significantly higher than that in the Control group
